Experimental data from the supplement of paper PMC11061612.

Columns and labels:
Assay in all cases: Bliss excess, mean over the matrix (fraction); higher = more synergy
[1] = test system: CAL-54 (Kidney Carcinoma)
Summary of the method: (§1)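 Bliss excess equals the observed combination effect minus the expected value EA + EB − EA·EB, where EA and EB are the effects of each agent alone. Combination Emax is the second-highest inhibition within the matrix. Inhibition was scaled from CellTiter-Glo 2.0 luminescence, with 0 set by vehicle wells and 1 by blank wells, after 72 hours of two-drug dosing of cells plated in 1536-well plates.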

[2] = test system: HDLM-2 (Hodgkin's Lymphoma)
Summary of the method: as §1

NCI-H28 (Mesothelioma) = test system: NCI-H28 (Mesothelioma)
Summary of the method: as §1

NB14 (Neuroblastoma) = test system: NB14 (Neuroblastoma)
Summary of the method: as §1

[3] = test system: NCI-H69 (Small Cell Lung Carcinoma)
Summary of the method: as §1

[4] = test system: LU-139 (Small Cell Lung Carcinoma)
Summary of the method: as §1

[5] = test system: SUP-T1 (T-Lymphoblastic Leukemia)
Summary of the method: as §1

[6] = test system: LoVo (Colorectal Carcinoma)
Summary of the method: as §1

Mewo (Melanoma) = test system: Mewo (Melanoma)
Summary of the method: as §1

[7] = test system: MDA-MB-468 (Breast Carcinoma)
Summary of the method: as §1

[8] = test system: SK-OV-3 (Ovarian Carcinoma)
Summary of the method: as §1

[9] = test system: HARA (Squamous Cell Lung Carcinoma)
Summary of the method: as §1

COLO-829 (Melanoma) = test system: COLO-829 (Melanoma)
Summary of the method: as §1

[10] = test system: KARPAS-231 (B-Cell Non-Hodgkin's Lymphoma)
Summary of the method: as §1

[11] = test system: MHH-PREB-1 (B-Cell Non-Hodgkin's Lymphoma)
Summary of the method: as §1

[12] = test system: TE-4 (Esophageal Squamous Cell Carcinoma)
Summary of the method: as §1

[13] = test system: SW626 (Colorectal Carcinoma)
Summary of the method: as §1

[14] = test system: KYSE-410 (Esophageal Squamous Cell Carcinoma)
Summary of the method: as §1

[15] = test system: NCI-H747 (Colorectal Carcinoma)
Summary of the method: as §1

[16] = test system: OVCAR-8 (Ovarian Carcinoma)
Summary of the method: as §1

| Structure (SMILES) | Bliss excess [1] | Bliss excess [2] | Bliss excess (NCI-H28 (Mesothelioma)) | Bliss excess (NB14 (Neuroblastoma)) | Bliss excess [3] | Bliss excess [4] | Bliss excess [5] | Bliss excess [6] | Bliss excess (Mewo (Melanoma)) | Bliss excess [7] | Bliss excess [8] | Bliss excess [9] | Bliss excess (COLO-829 (Melanoma)) | Bliss excess [10] | Bliss excess [11] | Bliss excess [12] | Bliss excess [13] | Bliss excess [14] | Bliss excess [15] | Bliss excess [16] |
| --- | --- | --- | --- | --- | --- | --- | --- | --- | --- | --- | --- | --- | --- | --- | --- | --- | --- | --- | --- | --- |
| C=CCn1c(=O)c2cnc(Nc3ccc(N4CCN(C)CC4)cc3)nc2n1-c1cccc(C(C)(C)O)n1 [AZD1775] + CCc1c2c(nc3ccc(O)cc13)-c1cc3c(c(=O)n1C2)COC(=O)[C@]3(O)CC [SN-38] (first compound max 1 µM, partner max 0.3 µM) | -0.0327 | -0.0928 | -0.0503 | -0.007 | -0.0629 | -0.0526 | -0.105 | -0.0388 | -0.0402 | -0.0811 | -0.0557 | -0.015 | – | – | – | – | – | – | – | – |
| COc1nnc2ccc(N3CCC(c4ccc(OCCN5CCN(C)C(=O)[C@H]5C)cc4)CC3)nn12 [AZD5153] + Cc1c2c(nn1C)CSCc1cc(n(C)n1)CSc1cc(c3ccccc3c1)OCCCc1c(C(=O)O)n(C)c3c-2c(Cl)ccc13 [AZD5991] (first compound max 1 µM, 7x7, partner max 1 µM) | -0.0396 | -0.0401 | -0.0976 | 0.034 | -0.0507 | -0.0069 | -0.021 | -0.0383 | -0.0453 | – | -0.048 | -0.0142 | -0.0168 | -0.128 | -0.0418 | -0.0212 | -0.0374 | 0.0001 | -0.0442 | 0.0205 |
| C=CCn1c(=O)c2cnc(Nc3ccc(N4CCN(C)CC4)cc3)nc2n1-c1cccc(C(C)(C)O)n1 [AZD1775] + C1CN(CCC1(C(=O)N[C@@H](CCO)C2=CC=C(C=C2)Cl)N)C3=NC=NC4=C3C=CN4 [Capivasertib] (first compound max 3 µM, partner max 3 µM) | -0.0622 | -0.0503 | -0.0725 | -0.0551 | -0.0601 | 0.0096 | -0.0212 | 0.0281 | -0.0433 | – | -0.0692 | -0.0002 | 0.0335 | 0.0311 | -0.005 | -0.045 | -0.0606 | -0.0015 | -0.0485 | -0.0167 |
| COc1nnc2ccc(N3CCC(c4ccc(OCCN5CCN(C)C(=O)[C@H]5C)cc4)CC3)nn12 [AZD5153] + Cn1cnc2c(F)c(Nc3ccc(Br)cc3Cl)c(C(=O)NOCCO)cc21 [Selumetinib] (first compound max 1 µM, 7x7, partner max 10 µM) | -0.0165 | -0.0407 | -0.0199 | -0.0325 | -0.0503 | 0.0169 | -0.052 | 0.065 | 0.0325 | – | -0.0545 | 0.0308 | -0.0086 | -0.0464 | -0.0323 | 0.0311 | -0.005 | -0.0784 | -0.0727 | 0.0159 |
| Cn1cnc2c(F)c(Nc3ccc(Br)cc3Cl)c(C(=O)NOCCO)cc21 [Selumetinib] + C[C@@H]1COCCN1C2=NC(=NC(=C2)C3(CC3)[S@](=N)(=O)C)C4=C5C=CNC5=NC=C4 [AZD6738] (first compound max 10 µM, 7x7, partner max 10 µM) | -0.0083 | -0.0422 | -0.0096 | -0.0232 | -0.0686 | -0.0259 | -0.0747 | -0.0381 | -0.0236 | – | -0.0424 | -0.0115 | 0.102 | 0.0287 | -0.0416 | -0.0063 | 0.0756 | 0.0274 | 0.002 | -0.0197 |
| Cn1cnc2c(F)c(Nc3ccc(Br)cc3Cl)c(C(=O)NOCCO)cc21 [Selumetinib] + C=CCn1c(=O)c2cnc(Nc3ccc(N4CCN(C)CC4)cc3)nc2n1-c1cccc(C(C)(C)O)n1 [AZD1775] (first compound max 10 µM, partner max 1 µM) | -0.076 | -0.092 | -0.0376 | -0.0193 | -0.0312 | 0.0238 | -0.0663 | -0.0105 | -0.0304 | – | -0.0656 | -0.0406 | -0.0734 | -0.0167 | -0.0531 | -0.0849 | -0.0577 | 0.0543 | -0.0761 | 0.0202 |
| COc1nnc2ccc(N3CCC(c4ccc(OCCN5CCN(C)C(=O)[C@H]5C)cc4)CC3)nn12 [AZD5153] + C[C@@H]1COCCN1C2=NC(=NC(=C2)C3(CC3)[S@](=N)(=O)C)C4=C5C=CNC5=NC=C4 [AZD6738] (first compound max 1 µM, 7x7, partner max 10 µM) | -0.0043 | -0.0567 | 0.0141 | -0.043 | 0.0358 | 0.01 | -0.0445 | 0.0603 | -0.007 | – | -0.0285 | -0.0012 | -0.0138 | -0.0609 | 0.0605 | 0.0983 | 0.054 | 0.041 | 0.0079 | 0.0047 |
| CS(=O)(=O)CCNCc1ccc(-c2ccc3ncnc(Nc4ccc(OCc5cccc(F)c5)c(Cl)c4)c3c2)o1 [Lapatinib] + Cn1cnc2c(F)c(Nc3ccc(Br)cc3Cl)c(C(=O)NOCCO)cc21 [Selumetinib] (first compound max 10 µM, 7x7, partner max 10 µM) | 0.0022 | 0.0023 | -0.0026 | 0.0397 | -0.0384 | -0.0161 | -0.0679 | 0.0361 | -0.0029 | -0.0835 | -0.0287 | -0.0257 | – | – | – | – | – | – | – | – |
| COc1nnc2ccc(N3CCC(c4ccc(OCCN5CCN(C)C(=O)[C@H]5C)cc4)CC3)nn12 [AZD5153] + CCN(CCO)CCCOc1ccc2c(Nc3cc(CC(=O)Nc4cccc(F)c4)[nH]n3)ncnc2c1 [AZD2811] (first compound max 1 µM, 7x7, partner max 1 µM) | -0.0225 | 0.0003 | -0.0415 | -0.0546 | 0.0048 | 0.0203 | 0.0027 | -0.0623 | -0.0578 | – | -0.0703 | -0.0548 | -0.0173 | -0.203 | 0.0074 | -0.0116 | -0.0348 | -0.0182 | -0.0623 | -0.0131 |
| CS(=O)(=O)CCNCc1ccc(-c2ccc3ncnc(Nc4ccc(OCc5cccc(F)c5)c(Cl)c4)c3c2)o1 [Lapatinib] + NC1(c2ccc(-c3nc4ccn5c(=O)[nH]nc5c4cc3-c3ccccc3)cc2)CCC1 [MK-2206] (first compound max 10 µM, 7x7, partner max 10 µM) | -0.0009 | -0.0168 | -0.0103 | 0.0136 | 0.0389 | 0.0119 | -0.0215 | 0.0841 | 0.0072 | 0.0008 | 0.0257 | 0.086 | -0.0245 | – | – | – | – | – | -0.126 | – |
| Cc1nc(-c2cn3c(n2)-c2ccc(-c4cnn(C(C)(C)C(N)=O)c4)cc2OCC3)n(C(C)C)n1 [Taselisib] + O=C(Nc1ccc2[nH]nc(-c3ccncc3)c2c1)[C@@H]1CCN(CC(=O)N2CCN(c3ccc(-c4ncccn4)cc3)CC2)C1 [SCH772984] (first compound max 10 µM, 7x7, partner max 5 µM) | -0.0024 | 0.0529 | 0.0417 | 0.192 | 0.0251 | -0.0066 | 0.0502 | -0.0284 | 0.017 | -0.003 | 0.0609 | 0.0577 | – | – | – | – | – | – | – | – |
| C[C@@H](c1ccc2nccn2c1)n1nnc2ncc(-c3cnn(C)c3)nc21 [Savolitinib] + CC1(C)CCC(CN2CCN(c3ccc(C(=O)NS(=O)(=O)c4ccc(NCC5CCOCC5)c([N+](=O)[O-])c4)c(Oc4cnc5[nH]ccc5c4)c3)CC2)=C(c2ccc(Cl)cc2)C1 [Venetoclax] (first compound max 1 µM, 7x7, partner max 1 µM) | -0.102 | -0.0465 | -0.0481 | -0.0082 | -0.0144 | -0.0256 | -0.0456 | -0.0394 | -0.0647 | – | -0.0511 | -0.031 | -0.0411 | -0.0344 | -0.0286 | -0.009 | -0.066 | -0.0726 | -0.0817 | -0.035 |
| C[C@@H](c1ccc2nccn2c1)n1nnc2ncc(-c3cnn(C)c3)nc21 [Savolitinib] + Cc1c2c(nn1C)CSCc1cc(n(C)n1)CSc1cc(c3ccccc3c1)OCCCc1c(C(=O)O)n(C)c3c-2c(Cl)ccc13 [AZD5991] (first compound max 1 µM, 7x7, partner max 1 µM) | -0.0337 | -0.0099 | -0.0643 | -0.0411 | -0.0269 | -0.0213 | -0.0571 | -0.0331 | -0.0237 | – | -0.0556 | -0.0353 | -0.0075 | -0.0258 | -0.0375 | -0.0289 | 0.0147 | -0.0749 | -0.0465 | -0.0327 |
| Cn1cnc2c(F)c(Nc3ccc(Br)cc3Cl)c(C(=O)NOCCO)cc21 [Selumetinib] + CC(C)n1c(=O)n(C)c2cnc3cc(F)c(-c4ccc(OCCCN5CCCCC5)nc4)cc3c21 [AZD1390] (first compound max 10 µM, 7x7, partner max 0.3 µM) | -0.0377 | -0.0509 | -0.0403 | 0.0021 | -0.0305 | -0.0259 | -0.0481 | -0.0325 | -0.0086 | – | -0.0088 | -0.0159 | -0.0578 | -0.0101 | -0.0218 | -0.0461 | -0.0121 | -0.0327 | -0.0334 | -0.0254 |
| CCc1c2c(nc3ccc(O)cc13)-c1cc3c(c(=O)n1C2)COC(=O)[C@]3(O)CC [SN-38] + O=C(c1cc(Cc2n[nH]c(=O)c3ccccc23)ccc1F)N1CCN(C(=O)C2CC2)CC1 [Olaparib] (first compound max 0.3 µM, 7x7, partner max 10 µM) | -0.0068 | -0.0438 | 0.0588 | 0.0063 | -0.0035 | 0.0842 | 0.0435 | 0.0556 | 0.008 | 0.0941 | 0.0571 | 0.124 | -0.0186 | 0.113 | – | -0.0103 | 0.0064 | 0.0014 | 0.0512 | – |
| COc1cc2ncnc(Nc3ccc(F)c(Cl)c3)c2cc1OCCCN1CCOCC1 [Gefitinib] + CC(C)n1c(=O)n(C)c2cnc3cc(F)c(-c4ccc(OCCCN5CCCCC5)nc4)cc3c21 [AZD1390] (first compound max 10 µM, 7x7, partner max 0.3 µM) | -0.0718 | -0.0768 | – | -0.0145 | -0.0122 | -0.0251 | -0.0389 | -0.0418 | -0.0712 | – | -0.0442 | -0.0343 | -0.0599 | -0.0423 | -0.0748 | -0.0286 | -0.0777 | -0.0779 | -0.0986 | -0.0633 |
